Where two headings read alike, the source gives them in different places.
Experiments:
Format in all cases: in vivo
[1] = system: Avena fatua (AVEFA); assay: Post-emergence action against weeds, greenhouse pot test, visual rating: Avena fatua; conditions: for pest or weed control at 4 g/ha: 4 g a.i./ha
[2] = system: Brachiaria platyfylla (BRAPP); assay: Post-emergence action against weeds, greenhouse pot test, visual rating: Brachiaria platyfylla; conditions: post-emergence
Experimental: (§1) When the observed efficacies already exceed the formal sum total of the values of the tests with individual applications, they also exceed the expected value according to Colby, which is calculated using the formula below and is likewise regarded as an indication of synergism (cf. S. R. Colby; in Weeds 15 (1967) pp. 20 to 22):
(§2) where: • A=efficacy of the active ingredient (A) in % at an application rate of a [g a.i./ha]; • B=efficacy of the active ingredient (B) in % at an application rate of b [g a.i./ha]; • E^C=expected value of the effect of the combination (A)+(B) in % at the combined application rate a+b [g a.i./ha].
(§3) The observed values (E^A) from the experiments, given suitable low dosages, show an effect of the combinations exceeding the expected values according to Colby (E^C) (Δ).
(§4) Seeds of mono- and dicotyledonous weeds were placed in sandy loam in pots, covered with soil and grown in a greenhouse under good growth conditions (temperature, air humidity, water supply). Two to three weeks after sowing, the test plants were treated at the two- to four-leaf stage with the compositions of the invention. The compositions of the invention, formulated as spray powders or as emulsion concentrates, were sprayed onto the green parts of the plant in various dosages with an application rate equivalent to […] of water. After the test plants had been kept in the greenhouse under optimum growth conditions for 3 weeks, the activity of the preparations was rated visually in comparison to untreated controls.
(§5) 100% efficacy means complete control of the particular weed tested.
(§6) 0% efficacy means zero control of the particular weed tested.
(§7) Expected values according to Colby are reported under E.
(§8) The exceedance of the expected value E is given as Δ (=synergistic effect).
(§9) The rating period is reported in days after application (DAT).

[3] = system: Centaurea cyanus (CENCY); assay: Post-emergence action against weeds, greenhouse pot test, visual rating: Centaurea cyanus; conditions: 4 g a.i./ha
Experimental: as §1, §2, §3, §4, §5, §6, §7, §8, §9

[4] = system: Eleusine indica (ELEIN); assay: Post-emergence action against weeds, greenhouse pot test, visual rating: Eleusine indica; conditions: Eleusine indica, post-emergence
Experimental: as §1, §2, §3, §4, §5, §6, §7, §8, §9

[5] = system: Kochia scoparia (KCHSC); assay: Post-emergence action against weeds, greenhouse pot test, visual rating: Kochia scoparia
[6] = system: Lolium rigidum (LOLRI); assay: Post-emergence action against weeds, greenhouse pot test, visual rating: Lolium rigidum
[7] = system: Pharbitis purpurea (PHBPU); assay: Post-emergence action against weeds, greenhouse pot test, visual rating: Pharbitis purpurea; conditions: 21 DAT
Experimental: as §1, §2, §3, §4, §5, §6, §7, §8, §9

[8] = system: Sorghum halepense (SORHA); assay: Post-emergence action against weeds, greenhouse pot test, visual rating: Sorghum halepense
Experimental: as §1, §2, §3, §4, §5, §6, §7, §8, §9

[9] = system: Echinochloa crus-galli (ECHCG); assay: Post-emergence action against weeds, greenhouse pot test, visual rating: Echinochloa crus-galli
[10] = system: Bidens pilosa (BIDPI); assay: Post-emergence action against weeds, greenhouse pot test, visual rating: Bidens pilosa
[11] = Avena fatua, 240 h, 10 DAT, read-out: Herbicidal effect [%] on AVEFA 10 DAT
[12] = 240 h, read-out: Herbicidal effect [%] on BRAPP 10 DAT
[13] = 504 h, read-out: Herbicidal effect [%] on ELEIN 21 DAT
[14] = Bassia scoparia, post-emergence, 504 h, read-out: Herbicidal effect [%] on KCHSC 21 DAT
[15] = 240 h, read-out: Herbicidal effect [%] on ELEIN 10 DAT

For `CS(=O)(=O)c1ccc(C(=O)C2C(=O)CCCC2=O)c([N+](=O)[O-])c1` [Mesotrione, mesotrione], the pest or weed control at 4 g/ha [1, 11] was 10%, the pest or weed control at 4 g/ha ([2]; 504 h, 4 g a.i./ha, read-out: Herbicidal effect [%] on BRAPP 21 DAT) was 0% and the “Herbicidal effect [%] on CENCY 21 DAT” value [3] was 40%. The pest or weed control at 4 g/ha ([4]; 504 h, 4 g a.i./ha, read-out: Herbicidal effect [%] on ELEIN 21 DAT) was 10%, the “Herbicidal effect [%] on KCHSC 10 DAT” value ([5]; 4 g a.i./ha) was 30% and the pest or weed control at 4 g/ha ([6]; Lolium rigidum, 504 h, 4 g a.i./ha, 21 DAT, read-out: Herbicidal effect [%] on LOLRI 21 DAT) was 0%.

With `COc1c(Cl)ccc(-c2nc(C(=O)O)c(Cl)c(N)c2F)c1F` [Florpyrauxifen, florpyrauxifen] the “Herbicidal effect [%] on PHBPU 21 DAT” value ([7]; 1 g a.i./ha) was 10%.

With `CCSC(C)CC1CC(=O)C(/C(CC)=N/OC/C=C/Cl)=C(O)C1` (stereo not drawn) [Clethodim, clethodim] the pest or weed control at 8 g/ha [2, 12] was 85%, the pest or weed control at 8 g/ha [4, 13] was 30% and the pest or weed control at 8 g/ha [5, 14] was 0%. For the same compound, the “Herbicidal effect [%] on LOLRI 10 DAT” value ([6]; 8 g a.i./ha, 10 DAT) was 80% and the “Herbicidal effect [%] on SORHA 10 DAT” value ([8]; 8 g a.i./ha, 10 DAT) was 80%.

In the case of `CCS(=O)(=O)c1cccnc1S(=O)(=O)NC(=O)Nc1nc(OC)cc(OC)n1` [Rimsulfuron, rimsulfuron], the “Herbicidal effect [%] on AVEFA 21 DAT” value ([1]; 21 DAT, 0.9 g a.i./ha) was 50%, the pest or weed control at 0.9 g/ha ([1]; Avena fatua, 240 h, 10 DAT, 0.9 g a.i./ha, read-out: Herbicidal effect [%] on AVEFA 10 DAT) was 60% and the “Herbicidal effect [%] on ECHCG 21 DAT” value ([9]; 0.9 g a.i./ha) was 90%. For the same compound, the pest or weed control at 0.9 g/ha ([4]; 504 h, 0.9 g a.i./ha, read-out: Herbicidal effect [%] on ELEIN 21 DAT) was 40% and the “Herbicidal effect [%] on PHBPU 21 DAT” value ([7]; 0.9 g a.i./ha) was 10%.

With `COc1c(Cl)ccc(Cl)c1C(=O)O` [Dicamba, dicamba] the “Herbicidal effect [%] on BIDPI 10 DAT” value ([10]; 5 g a.i./ha) was 30%, the “Herbicidal effect [%] on BIDPI 21 DAT” value ([10]; 5 g a.i./ha) was 40% and the pest or weed control at 5 g/ha [2, 12] was 0%. For the same compound, the pest or weed control at 5 g/ha ([2]; 504 h, read-out: Herbicidal effect [%] on BRAPP 21 DAT) was 0%, the “Herbicidal effect [%] on ECHCG 10 DAT” value ([9]; 5 g a.i./ha) was 0% and the pest or weed control at 5 g/ha [4, 15] was 0%. The pest or weed control at 5 g/ha [4, 13] was 0%, the “Herbicidal effect [%] on KCHSC 10 DAT” value ([5]; 5 g a.i./ha) was 20% and the pest or weed control at 5 g/ha [5, 14] was 20%. It also gave a pest or weed control at 5 g/ha ([6]; Lolium rigidum, 504 h, read-out: Herbicidal effect [%] on LOLRI 21 DAT) of 0%.

With `O=C(Nc1ccc(F)cc1F)c1cccnc1Oc1cccc(C(F)(F)F)c1` [Diflufenican, diflufenican] the pest or weed control at 120 g/ha ([1]; Avena fatua, 240 h, 10 DAT, 120 g a.i./ha, read-out: Herbicidal effect [%] on AVEFA 10 DAT) was 10%, the pest or weed control at 120 g/ha ([4]; 504 h, 120 g a.i./ha, read-out: Herbicidal effect [%] on ELEIN 21 DAT) was 10% and the “Herbicidal effect [%] on SORHA 21 DAT” value ([8]; 120 g a.i./ha, 21 DAT) was 0%.

`CS(=O)(=O)c1cc(C(F)(F)F)ccc1C(=O)c1cnoc1C1CC1` [Isoxaflutole, isoxaflutole] was tested, and the pest or weed control at 4 g/ha [1, 11] was 30%, the “Herbicidal effect [%] on BIDPI 21 DAT” value ([10]; 4 g a.i./ha) was 40% and the “Herbicidal effect [%] on ECHCG 10 DAT” value ([9]; 4 g a.i./ha) was 60%. For the same compound, the “Herbicidal effect [%] on ECHCG 21 DAT” value ([9]; 4 g a.i./ha) was 40%, the pest or weed control at 4 g/ha ([5]; Bassia scoparia, post-emergence, 504 h, 4 g a.i./ha, read-out: Herbicidal effect [%] on KCHSC 21 DAT) was 30% and the “Herbicidal effect [%] on PHBPU 21 DAT” value ([7]; 4 g a.i./ha) was 10%.

For `O=C(O)CNCP(=O)(O)O` [Glyphosate, glyphosate], the “Herbicidal effect [%] on ECHCG 10 DAT” value ([9]; 30 g a.i./ha) was 20% and the pest or weed control at 30 g/ha [5, 14] was 0%.

In the case of `CP(=O)(O)CCC(N)C(=O)O` (stereo not drawn) [Glufosinate, glufosinate], the pest or weed control at 30 g/ha [4, 15] was 10%.
